Test results reported in paper PMC3894558, “Chemical signatures and new drug targets for gametocytocidal drug development” (Scientific Reports, 2014).
Read-outs that look alike come from different tables or passages of the source.

System: P. falciparum 3D7 gametocytes
Assay: alamarBlue gametocyte viability assay, strain 3D7
Type: cell-based, Plasmodium falciparum
Conditions: Malaria Box; for Max Resp: DMSO set at 0%, 100 nM epoxomicin set at -100%; for Curve Class / IC50: stages III-V 3D7 gametocytes; for IC50: 11 concentrations, 1:3 dilution; call rule not given here

Compound | Max Resp [%] | Curve Class | IC50 (read-out: IC50) [µM] | IC50
c1ccc(CNc2nc(Nc3ccccc3)nc3ccccc23)cc1 [MMV006169] | -80 | -2.2 | 11.8 | 
Cc1ccc(NC(=O)Nc2cccc(Cl)c2)cc1F [MMV000911] | -36 | -2.2 |  | Inactive
COc1cccc(Cn2c(Oc3ccccc3)nc3c2c(=O)n(C)c(=O)n3C)c1 [MMV396705] | -1 | 4 |  | Inactive
CCCc1c(C)nc2ccc(Br)cc2c1O [MMV666095] | 28 | 4 |  | Inactive
OC1CCCCC1C1(NC(=S)Nc2ccccc2)CCCCC1 (stereo not drawn) [MMV665980] | -81 | -2.1 | 11.8 | 
C=CC12CCN(CC1)C(C(O)c1ccnc3ccc(OC)cc13)C2.Cl (stereo not drawn) [MMV665782] | -31 | -1.2 | 0.209 | 
CCCOCc1cc(CN2CCN(c3cccc(Cl)c3)CC2)c(O)c2ncccc12 [MMV000787] | -98 | -1.1 | 8.33 | 
CC1CC(C)CN(C(=O)c2ccc(Cl)cc2Cl)C1 (stereo not drawn) [MMV001344] | -13 | 4 |  | Inactive
CC(=O)c1ccc(NC(=O)CSc2nc(-c3ccccc3Cl)ns2)cc1 [MMV666124] | -33 | -3 |  | Inactive
CCOC(=O)c1c(C)n(-c2ccc(Cl)cc2)c2ccc(OC(=O)C=Cc3ccccc3)cc12 [MMV666600] | 2 | 4 |  | Inactive
CCOC(=O)c1ccc2[nH]c(-c3ccccc3)cc(=O)c2c1 [MMV006457] | 14 | 4 |  | Inactive
Cc1nc2ccccc2c(O)c1CC=C(Cl)Cl [MMV665994] | 5 | 4 |  | Inactive
Cc1cc(Nc2ccc(OCc3ccccc3)cc2)nc2cc(O)ccc12 [MMV007181] | -30 | -1.2 | 0.59 | 
COc1ccc(-c2cc3c(nn2)-c2ccccc2C3=O)cc1 [MMV666026] | 0 | 4 |  | Inactive
COc1ccc(CN2CCN(Cc3ccccc3)CC2)c(O)c1 [MMV665944] | -96 | -2.1 | 6.62 | 
Nc1ccc(-c2nc3cc(Oc4ccc(Oc5ccc6[nH]c(-c7ccc(N)cc7)nc6c5)cc4)ccc3[nH]2)cc1 [MMV011895] | -78 | -2.2 | 18.7 | 
CCOc1c(Br)cc(C2C(C(=O)OC)=CN(C)C=C2C(=O)OC)cc1OC [MMV006764] | -76 | -2.2 | 14.8 | 
Nc1ccn([C@@H]2O[C@H](CO)[C@@H](O)[C@H]2O)c(=O)n1 [MMV638723] | -5 | 4 |  | Inactive
Cc1ccc(Cl)cc1N1CCN(CCCNC(=O)C2CCN(c3nc4ccccc4[nH]3)CC2)CC1 [MMV019746] | -74 | -2.2 | 29.6 | 

Compound | Max Resp [%] | Curve Class | IC50 (read-out: IC50) [µM] | IC50
COc1ccc(-c2cn3c(C(=O)Nc4ccccc4Cl)c(-c4ccccc4)c4c3n2CCCC4)cc1 [MMV020403] | -73 | -2.2 | 23.5 | 
COc1ccc2nc(C)cc(Nc3ccc(Cl)cc3)c2c1 [MMV007875] | -72 | -2.2 | 23.5 | 
COc1ccc(CCNC(=O)c2cc(S(=O)(=O)N3CC(C)CC(C)C3)ccc2Sc2ccc(F)cc2)cc1OC (stereo not drawn) [MMV007557] | -72 | -2.2 | 9.35 | 
CCOC(=O)c1cnc2ccc(OC)cc2c1NCc1ccccc1 [MMV665813] | -14 | 4 |  | Inactive
Cc1cc(NC(=O)c2ccc(-c3ccccc3)cc2)no1 [MMV018984] | 14 | 4 |  | Inactive
Cc1ccc2cc3c(N)c4c(C)ccc(C)c4nc3nc2c1 [MMV666079] | -81 | -2.1 | 16.6 | 
C=C(C)CCC(C)N1CCC(N2CCC(C(=O)NCCc3ccccc3)CC2)CC1 (stereo not drawn) [MMV666110] | -73 | -2.2 | 29.6 | 
COc1ccc(C=C2SC(Nc3ccc(F)cc3)=NC2=O)c(OC)c1 [MMV084434] | -24 | 4 |  | Inactive
Cc1sc(NC(=O)c2ccccc2)c(C(c2cccs2)N2CCN(c3ccccc3)CC2)c1C (stereo not drawn) [MMV396652] | -1 | 4 |  | Inactive
CCCCN(CCCC)S(=O)(=O)c1ccc(NC(=O)c2ccco2)cc1 [MMV007881] | 15 | 4 |  | Inactive
CCOC(=O)c1c(C)n(-c2ccccc2)c2ccc(OC(=O)c3cc(OC)c(OC)c(OC)c3)cc12 [MMV396664] | -4 | 4 |  | Inactive
CCN(CC)CCNc1ccnc2cc(Cl)ccc12 [MMV006087] | -66 | -1.2 | 0.372 | 
CCN1CCN(c2c(C(=O)c3ccccc3)cnc3cc(OC)c(OC)cc23)CC1 [MMV008474] | -32 | -2.4 |  | Inactive
CCOC(=O)c1cnc2ccc(Cl)cc2c1NCCCN(C)C [MMV006882] | -43 | -2.2 |  | Inactive
O=C(Nc1ccc(N2CCN(Cc3ccccc3)CC2)cc1)c1cccs1.O=C(O)C(F)(F)F [MMV019670] | 13 | 4 |  | Inactive
CC1CC2=C(CC1CNCCCN(C)C)C(C)(C)CCC2 (stereo not drawn) [MMV665830] | -88 | -1.1 | 1.66 | 
Oc1ccc(-c2nc(-c3ccc4oc5ccc(-c6[nH]c(-c7ccc(O)cc7)nc6-c6ccccc6)cc5c4c3)c(-c3ccccc3)[nH]2)cc1 [MMV000753] | -68 | -2.2 | 18.7 | 
O=C(NC1CCCCC1)C(c1cccs1)N(CCc1ccccc1)C(=O)c1ccco1 (stereo not drawn) [MMV666106] | -29 | 4 |  | Inactive
COc1ccc(CCN2CCC(CN(C)Cc3cnn(-c4ccccc4)c3)CC2)cc1 [MMV666069] | -86 | -2.1 | 10.5 | 

Compound | Max Resp [%] | Curve Class | IC50 (read-out: IC50) [µM] | IC50
Clc1ccc2c(N3CCCC3)ccnc2c1 [MMV007363] | -75 | -2.2 | 23.5 | 
Cc1cc(C)cc(Nc2cc(C)nc3nc(C(F)(F)F)nn23)c1 [MMV011259] | 4 | 4 |  | Inactive
FC(F)(F)c1ccc(Nc2nnnc3ccccc23)cc1 [MMV665935] | 25 | 4 |  | Inactive
c1ccc(Cn2c(N=Nc3c(Nc4ccccc4)ccc4ccccc34)nc3ccccc32)cc1 [MMV666023] | -89 | -2.1 | 10.5 | 
COc1cc(SC)ccc1C(=O)N1CCCC(C)C1 (stereo not drawn) [MMV056726] | -5 | 4 |  | Inactive
CCOC(=O)C1=C(c2ccccc2)N=c2sc(=Cc3cc(C)n(-c4ccc(F)cc4)c3C)c(=O)n2C1c1cccc(OC)c1OC (stereo not drawn) [MMV666601] | -26 | 4 |  | Inactive
CN1C=C(c2ccc3ccccc3n2)C(c2c[nH]c3ccccc23)c2ccccc21 (stereo not drawn) [MMV008160] | -87 | -2.1 | 14.8 | 
CN1CCN(c2c3c(c(C#N)c4nc5ccccc5n24)CCC3)CC1 [MMV008127] | -5 | 4 |  | Inactive
O=C(O)C(=O)O.Oc1ccc(Br)cc1CN1CCN(Cc2cccc(F)c2)CC1 [MMV000356] | -72 | -1.2 | 2.64 | 
COc1cc2c(cc1OC)C1=NNC(=O)C1=NC(C)(C)C2 [MMV084940] | -133 | -1.1 | 1.32 | 
OC(Cn1nnc2ccccc21)Cn1c2ccc(Br)cc2c2cc(Br)ccc21 (stereo not drawn) [MMV666025] | -60 | -2.2 | 37.2 | 
Cc1cccc(N2C(=O)C3C(C2=O)C2(c4ccccc4)C(=O)C3(c3ccccc3)C(c3ccc4c(c3)OCO4)=C2c2ccc3c(c2)OCO3)c1 (stereo not drawn) [MMV007228] | -1 | 4 |  | Inactive
CCOc1ccccc1NC(=O)CN1CCN(C(=O)c2ccco2)CC1 [MMV007791] | 1 | 4 |  | Inactive
CCOC(=O)C1=C(C)N=c2sc(=Cc3cc(Cl)ccc3O)c(=O)n2C1c1ccc(OC)cc1 (stereo not drawn) [MMV665971] | -40 | -1.2 | 2.96 | 
COc1cc(OC)c(N(C)C(=O)c2cc3c(s2)-c2ccccc2S(=O)(=O)C3)cc1Cl [MMV006427] | -74 | -2.2 | 11.8 | 
CC(=O)Nc1nnc(SCc2c(C)cc(C(C)(C)C)cc2C)s1 [MMV020700] | -2 | 4 |  | Inactive
COc1ccc(Nc2nc(NCc3ccccc3)c3ccccc3n2)cc1 [MMV000963] | -86 | -2.1 | 9.35 | 
COc1ccc(C(=O)Nc2ccc(Cl)cc2C(=O)Nc2ccncc2)cc1 [MMV665799] | -28 | 4 |  | Inactive
COc1ccc(Nc2nc(N/N=C/c3ccc(O)cc3)nc(Nc3ccc([N+](=O)[O-])cc3)n2)cc1 [MMV666689] | -64 | -1.2 | 6.62 | 
